US20090023700A1, “NEUROPROTECTIVE TREATMENTS” (University of Louisville Research Foundation, priority 2007, published 2009)

How the values were obtained:
RECA1 = RECA1 immunostaining (dorsal column blood vessels at epicenter) after T9 contusion; type: in vivo, rat; details: for area of blood vessels (RECA1) in the dorsal column: 7 d infusion started immediately after injury
Description: Another potential contributor to axon loss is ischemia caused by blood vessel loss. To test this possibility, the same sections were analyzed for the extent of endothelial cell/blood vessel sparing by immunostaining for RECA1. […] Therefore, epicenter RECA1 was measured in additional 7 d postinjury groups, excluding those infused at the epicenter and those with an epicenter transection (SEP), which damaged the tissue. The bpV(phen) treatment (started immediately after the injury) increased the area of blood vessels in the dorsal column in those rats infused with 30 and 100 μM bpV(phen) (FIG. 8E). […] However, there was no correlation between RECA1- and EC-stained dorsal column epicenter white matter (p=0.98).
Anterogradely labeled sensory fibers and terminals were visualized in every third section through both gracile nuclei by DAB-based immunostaining for CTB as described previously (Baker et al. (2007) Exp Neurol 205:82-91). The lumbar sections were stained to ensure that the CTB injections were successful as evidenced by traced afferents and motor neurons. […] The epicenter of maximal injury was determined by the rostrocaudal level with the least amount of spared white matter per transverse section. […]
Quantitative measurements and statistics. The extent of sensory innervation of the gracile nucleus was determined by measuring the CTB-labeled terminal fiber area in every third section as described previously (Baker et al. (2007) Exp Neurol 205:82-91). In short, images of every third section through the right and left gracile nuclei were analyzed using the density slice feature of the Scion Image software. […] Images of EC-stained sections were captured, and the positive areas were measured with Scion Image. […] The number of spared myelinated axons at C3 was counted in semithin sections using a 63× oil objective in 15.7×15.7 μm grids placed over the middle part of each fasciculus gracilis (see FIG. 4D-4F). […]

PTPs = details: cited from earlier work
cdc25B PTP = target: T1, cdc25B PTP (Mus musculus, UniProt P30306); details: mouse enzyme; cited from earlier work
T1 sequence (P30306 1-576): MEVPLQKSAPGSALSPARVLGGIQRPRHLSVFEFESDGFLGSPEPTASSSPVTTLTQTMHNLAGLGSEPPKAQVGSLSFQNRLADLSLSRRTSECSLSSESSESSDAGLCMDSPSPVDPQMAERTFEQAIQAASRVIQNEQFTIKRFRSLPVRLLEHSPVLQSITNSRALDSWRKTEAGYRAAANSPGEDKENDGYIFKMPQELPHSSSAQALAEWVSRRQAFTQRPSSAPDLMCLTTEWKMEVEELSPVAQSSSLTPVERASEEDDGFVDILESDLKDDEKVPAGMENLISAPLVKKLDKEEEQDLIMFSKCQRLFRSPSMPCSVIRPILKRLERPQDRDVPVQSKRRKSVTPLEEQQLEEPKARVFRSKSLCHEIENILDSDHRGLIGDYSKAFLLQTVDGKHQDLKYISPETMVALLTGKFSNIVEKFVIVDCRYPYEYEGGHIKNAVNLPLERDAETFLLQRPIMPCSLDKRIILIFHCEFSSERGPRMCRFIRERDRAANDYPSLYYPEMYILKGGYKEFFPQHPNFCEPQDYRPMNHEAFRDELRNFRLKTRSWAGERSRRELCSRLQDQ

rat cardiomyocytes = details: cited from earlier work
[1] = tested on: T9 contusive spinal cord injury; assay: Grid-walking sensorimotor test after T9 contusion
Description: Rats received a 0.3 mm contusion at T9 and 4 h later were implanted with a lumbar catheter to start infusions with PBS (n=9) or PBS containing 100 μM bpV(phen) (n=9). The treatment was maintained for 28 d by replacing the Alzet pumps every week with ones containing fresh reagents (FIG. 1A). Weekly hindlimb grid-walking performance was used to test sensorimotor function, which is in part dependent on the primary afferents and second-order propriospinal axons of the fasciculus gracilis in the dorsal columns. […] Naive rats take ˜150 s to complete the task.
Baseline values were determined a few days before the contusion. Sensorimotor function was tested by voluntary walking on a 45×45 inch grid with 1.5 inch holes. The hindlimb footfalls were called out by two investigators observing from different sides and recorded by a third. The test was completed after 90 s of walking was observed, and the total time was recorded.

Q: What does the source list for `O.O.O.OO.OO.[K+].[OH-].[V].c1cnc2c(c1)ccc1cccnc12` [bpV(phen), potassium bisperoxo(1,10-phenanthroline)oxovanadate (V)]?
A: area of blood vessels (RECA1) in the dorsal column (RECA1; 30 μM): increased; area of blood vessels (RECA1) in the dorsal column (RECA1; 100 μM): increased; blood vessels (RECA1) in the dorsal column at the epicenter (RECA1; 7 d infusion started 4 h after injury, area not significantly different from sham): sparing; inhibition of PTPs (PTPs): inhibits; inhibition of catalytic activity of purified cdc25B PTP (cdc25B PTP): can inhibit; glutathione concentration (rat cardiomyocytes): does not change; total time to perform 90 s of grid walking ([1]; 100 μM L5/6 infusion started 4 h after contusion, 8 d, PBS 219 s, naive ~150 s): 151 s; number of hindlimb footfalls (sum of both hindlimbs), grid walk ([1]; 100 μM L5/6 infusion started 4 h after contusion, 8 d test, PBS 29+/−6, before contusion 7+/−1): 14+/−2; rats within normal range of footfalls (3-14) ([1]; 100 μM L5/6 infusion started 4 h after contusion, day 8, PBS one of nine): seven of nine; number of hindlimb footfalls, grid walk ([1]; 100 μM, 28 d L5/6 infusion started 4 h after contusion, 29 d test, PBS 13+/−2): 6+/−1; total time to perform 90 s of grid walking ([1]; 100 μM, 28 d L5/6 infusion started 4 h after contusion, 36 d, PBS 200 s): 125 s
